Assay results reported in PubChem BioAssay (NCI).
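Briefly, cells in 96-well plates were exposed to five compound concentrations for 48 h, and endpoints were estimated by linear interpolation. GI50 marks 50% less growth. TGI: concentration producing complete growth inhibition.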

Experiments:
Assay in all cases: inhibition of tumour cell growth, NCI panel, 48 h
MOLT-4 leukemia = tested on: MOLT-4 leukemia
TK-10 renal = tested on: TK-10 renal
UACC-257 melanoma = tested on: UACC-257 melanoma
OVCAR-3 ovarian = tested on: OVCAR-3 ovarian
A549 NSCLC = tested on: A549 NSCLC
A498 renal = tested on: A498 renal
SNB-19 CNS = tested on: SNB-19 CNS
MALME-3M melanoma = tested on: MALME-3M melanoma
SR leukemia = tested on: SR leukemia
MDA-MB-435 = tested on: MDA-MB-435

Row | Compound | TGI (MOLT-4 leukemia) | TGI (TK-10 renal) | TGI (UACC-257 melanoma) | TGI (OVCAR-3 ovarian) | TGI (A549 NSCLC) | TGI (A498 renal) | TGI (SNB-19 CNS) | TGI (MALME-3M melanoma) | TGI (SR leukemia) | GI50 (MOLT-4 leukemia) | GI50 (TK-10 renal) | GI50 (UACC-257 melanoma) | GI50 (OVCAR-3 ovarian) | GI50 (A549 NSCLC) | GI50 (A498 renal) | GI50 (SNB-19 CNS) | GI50 (MALME-3M melanoma) | GI50 (MDA-MB-435) | TGI (MDA-MB-435) | GI50 (SR leukemia)
1 | Cc1cc(N(CCC#N)S(=O)(=O)c2ccccc2)ccc1/C=C1N=C(/C=C/c2ccccc2)OC\1=O | > 100 µM | > 100 µM | > 100 µM | > 100 µM | > 100 µM | > 100 µM | > 100 µM | > 100 µM | – | – | – | – | – | – | – | – | – | – | – | –
2 | C=CCC1([C@H](C)[C@@H](OC(C)=O)c2cc(OC)c(OC)c(OC)c2)C[C@@H](OC)CCC1=O (stereo not given in full) | 94.3 µM | > 100 µM | – | 50.5 µM | 77.5 µM | – | – | 43.1 µM | 91.7 µM | – | – | – | – | – | – | – | – | – | – | –
3 | CCCCCCCCCc1cc(=O)c2ccc(OCc3ccccc3)cc2o1 | – | > 100 µM | > 100 µM | > 100 µM | > 100 µM | – | > 100 µM | > 100 µM | – | – | – | – | – | – | – | – | – | – | – | –
4 | CC1CCCCc2nc3c(c(=O)n21)CCCC3 (stereo not given) | > 100 µM | > 100 µM | > 100 µM | > 100 µM | > 100 µM | – | > 100 µM | > 100 µM | – | – | – | – | – | – | – | – | – | – | – | –
5 | N#Cc1cnc2cc(OC[C@H](O)CO)c(NC(=O)CC3CSSC3)cc2c1Nc1ccc(OCc2cccc(F)c2)c(Cl)c1 | 0.209 µM | 2.13 µM | 1.96 µM | 1.24 µM | 1.98 µM | 2.45 µM | 1.43 µM | 2.06 µM | – | 0.0931 µM | 0.873 µM | 1.01 µM | 0.514 µM | 0.924 µM | 1.03 µM | 0.447 µM | 0.97 µM | 0.272 µM | 0.878 µM | –
6 | COc1ccccc1NC(=O)CC(=O)N1N=C(C)C(N=Nc2ccc(S(N)(=O)=O)cc2)C1=O (stereo not given) | > 100 µM | > 100 µM | > 100 µM | > 100 µM | > 100 µM | > 100 µM | > 100 µM | > 100 µM | > 100 µM | – | – | – | – | – | – | – | – | – | – | –
7 | Cc1ccncc1.[O]=[Ge].[O]=[Ge].[O]=[Ge].[O]=[Ge].[O]=[Ge].[O]=[Ge][OH].[O]=[Ge][OH] | > 100 µM | > 100 µM | > 100 µM | > 100 µM | > 100 µM | > 100 µM | > 100 µM | > 100 µM | > 100 µM | > 100 µM | > 100 µM | > 100 µM | > 100 µM | > 100 µM | > 100 µM | > 100 µM | > 100 µM | – | – | > 100 µM
8 | C=C1C(=O)O[C@H]2[C@H]1[C@H](OC(=O)/C(C)=C\C)CC(=C)[C@@H]1[C@H](O)[C@H]3O[C@@]3(C)[C@@]12O | – | > 100 µM | – | > 100 µM | > 100 µM | – | > 100 µM | > 100 µM | > 100 µM | – | – | – | – | – | – | – | – | – | – | –
9 | CN(C(=O)C12C3C4C5C3C1(C(=O)O)C5C42)C(C)(C)C (stereo not given) | > 100 µM | > 100 µM | > 100 µM | > 100 µM | > 100 µM | > 100 µM | > 100 µM | > 100 µM | > 100 µM | – | – | – | – | – | – | – | – | – | – | –
10 | Nc1cc2cccc[n+]2c2cc(Cl)ccc12 | – | – | 20.2 µM | – | – | – | 55.5 µM | 11.7 µM | 16.2 µM | 4.22 µM | 59.7 µM | 3.75 µM | – | 56.3 µM | – | 9.23 µM | 2.38 µM | 15.7 µM | 48.7 µM | 2.33 µM
11 | CCOC(=O)C1=C(C)N(Cc2ccccc2)C(C)=C(C(=O)OCC)C1c1ccccc1O | 32.3 µM | > 100 µM | 70.7 µM | 90.8 µM | > 100 µM | 91.4 µM | > 100 µM | 73.2 µM | 54.9 µM | – | – | – | – | – | – | – | – | – | – | –
12 | CC(=O)NC(CCCNCc1ccccc1)C(=O)NCc1ccccc1 (stereo not given) | > 100 µM | > 100 µM | > 100 µM | > 100 µM | > 100 µM | > 100 µM | > 100 µM | > 100 µM | – | – | – | – | – | – | – | – | – | – | – | –
13 | COc1nc(NC2OCC(OC(C)=O)C(OC(C)=O)C2OC(C)=O)c(N=CC=Nc2c(NC3OCC(OC(C)=O)C(OC(C)=O)C3OC(C)=O)nc(OC)n(C)c2=O)c(=O)n1C (stereo not given) | – | > 100 µM | > 100 µM | > 100 µM | > 100 µM | > 100 µM | > 100 µM | > 100 µM | > 100 µM | – | – | – | – | – | – | – | – | – | – | –
14 | O=c1c2c([nH]c3cc4c(cc13)OCO4)-c1ccccc1CC2 | > 100 µM | > 100 µM | > 100 µM | > 100 µM | > 100 µM | > 100 µM | > 100 µM | > 100 µM | > 100 µM | – | – | – | – | – | – | – | – | – | – | –
15 | COc1ccccc1NC(=O)C1=C(C)NC(C)=C(C(=O)Nc2ccccc2OC)C1c1ccccc1F | > 100 µM | > 100 µM | > 100 µM | > 100 µM | > 100 µM | > 100 µM | > 100 µM | > 100 µM | > 100 µM | – | – | – | – | – | – | – | – | – | – | –
16 | COc1ccc2c(c1)C(O)(C(F)(F)F)c1cc(C(=O)C(F)(F)F)c3ccccc3c1N2 (stereo not given) | 33.8 µM | 27.4 µM | 26.4 µM | 29.4 µM | 28.3 µM | 27.4 µM | 29.5 µM | – | – | – | – | – | – | – | – | – | – | – | – | –
17 | COC(=O)CCC1CCc2c(OC)ccc(O)c2C1=O (stereo not given) | > 100 µM | > 100 µM | > 100 µM | > 100 µM | > 100 µM | > 100 µM | > 100 µM | > 100 µM | > 100 µM | – | – | – | – | – | – | – | – | – | – | –
18 | COc1ccc(-c2cc(=O)c3cc4c(cc3[nH]2)OCO4)c(OC)c1OC | > 100 µM | > 100 µM | – | > 100 µM | > 100 µM | – | > 100 µM | > 100 µM | 70.9 µM | – | – | – | – | – | – | – | – | – | – | –
19 | CC(C)(C)OC(=O)C#CC[C@H]1CCCC1/C=C/C(O)=C1/C(=O)NC(CCCNC(=O)OC(C)(C)C)C1=O (stereo not given in full) | 75.9 µM | 84.5 µM | 61.4 µM | > 100 µM | > 100 µM | > 100 µM | 88.5 µM | 57.6 µM | > 100 µM | – | – | – | – | – | – | – | – | – | – | –
20 | COC(=O)c1csnn1 | > 100 µM | > 100 µM | > 100 µM | > 100 µM | > 100 µM | – | > 100 µM | > 100 µM | > 100 µM | – | – | – | – | – | – | – | – | – | – | –
21 | COC(=O)CCC(NC(=S)N/N=C(\C)c1nccs1)C(=O)OC (stereo not given) | – | > 100 µM | > 100 µM | > 100 µM | > 100 µM | > 100 µM | > 100 µM | > 100 µM | – | – | – | – | – | – | – | – | – | – | – | –
